Experiment [1] addresses T1, RrMbnBC (Rugamonas rubra, UniProt A0A1I4IFH0+A0A1I4IFL0).
T1 sequence (A0A1I4IFL0 1-277): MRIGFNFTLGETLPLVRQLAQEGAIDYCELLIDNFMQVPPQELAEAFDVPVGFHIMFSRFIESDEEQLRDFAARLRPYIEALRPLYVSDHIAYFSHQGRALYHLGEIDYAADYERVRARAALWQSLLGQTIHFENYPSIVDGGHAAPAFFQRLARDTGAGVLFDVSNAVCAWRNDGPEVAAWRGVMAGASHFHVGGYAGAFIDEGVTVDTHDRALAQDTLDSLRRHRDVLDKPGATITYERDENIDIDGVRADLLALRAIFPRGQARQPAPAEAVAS
T1 sequence (A0A1I4IFH0 1-199): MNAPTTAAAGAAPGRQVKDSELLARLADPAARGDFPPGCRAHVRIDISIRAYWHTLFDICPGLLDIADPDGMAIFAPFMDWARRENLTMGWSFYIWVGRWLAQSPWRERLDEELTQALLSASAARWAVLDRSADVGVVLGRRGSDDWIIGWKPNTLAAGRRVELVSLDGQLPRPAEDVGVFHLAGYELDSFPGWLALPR
The experiment can be described thus: UV-Vis activity assay, MbnA modification by RrMbnBC. In kind it is biochemical, Rugamonas rubra ATCC 43154. The following applies: co-expressed in Escherichia coli. The method, then:
Standard UV-Vis spectra detection was performed on a UV-Vis and Vis instrument (Ultrospec 2100 pro, Biochrom, UK) at room temperature. MtMbnBC and RrMbnBC proteins were adjusted to 5 mg/mL (nearly 100 μM), and VcMbnBC was adjusted to a concentration of 1 mg/mL (nearly 20 μM). The corresponding substrates, VcMbnA, RrMbnA, MtMbnA, and their variants (Supplementary information, Table S5), were dissolved in distilled water and diluted to a working concentration of 5 mM with buffer B. The reaction was initiated when 100 μL MbnBC proteins and 5 μL MbnA peptides were applied to the reaction system, and the reaction was diluted up to 1 mL with buffer B. The mixture was then added into a quartz cuvette and recorded at 20-s intervals for a total of 50 reads at room temperature. For assays using anaerobically prepared MbnBC proteins, the measurements were immediately recorded by adding the anaerobically prepared MbnBC into the reaction system, with peptides pre-mixed in the quartz cuvette. The buffer B used in the assay was O2-saturated at room temperature.
For the stopped-flow UV-Vis spectroscopic analysis, 10 μM MtMbnBC or RrMbnBC or 2 μM VcMbnBC was incubated with 250 μM MbnA peptides at room temperature for 1 h, followed by detection on a UV-Vis and Vis instrument (Nanodrop One, Thermo Scientific, MA). Data were processed by Graphpad Prism version 8.3.

Experiment [2] addresses T1, RrMbnBC. Kind of experiment: Limited proteolysis assay of RrMbnBC with MbnA. Also noted: species or system Rugamonas rubra ATCC 43154. The following applies: ~20 µM RrMbnBC incubated with MbnA 1 h at 4 °C, trypsin 30 min on ice, SDS-PAGE. The procedure: The limited proteolysis assay allows the characterization of the increase in stability of wild-type proteins upon binding to their substrates. The VcMbnBC and RrMbnBC proteins used in this assay were all adjusted to an equal molar concentration of about 20 µM. The RrMbnBC or VcMbnBC complex, by itself or after incubation with the corresponding MbnA peptide for 1 h at 4 °C, was digested by trypsin. After 30 min of incubation on ice, the proteolyzed products were analyzed by SDS-PAGE and visualized by Coomassie blue staining.

Experiment [3] concerns VcMbnBC. Kind of experiment: ITC measurement of VcMbnA and variants binding affinity to VcMbnBC. Also noted: species or system Vibrio caribbenthicus BAA-2122.
Experimental: MbnBC and the mutant proteins were all purified using the two-step standard method described above. The purified proteins were adjusted to 1 mg/mL and stored in 25 mM HEPES (pH 8.0) and 100 mM NaCl for ITC measurement. The MbnAs were dissolved and diluted to a working concentration of 2 mM in distilled water. ITC experiments were performed on a Nano ITC (Nano ITC-Low Volume; TA instrument, USA). Settings for the MbnA binding assay were optimized as follows: the titration assay was performed at 16 °C by injecting 2.5 μL MbnA peptide into a full cell containing 190 μL MbnBC or mutant MbnBC proteins every 120 s for a total of 20 injections, and the stirrer syringe stirring speed was set at 250 rpm.
Experiment [4] addresses T2, RrMbnBC complex (Rugamonas rubra ATCC 43154).
T2 chain 1: T1 sequence (A0A1I4IFL0 1-277)
T2 chain 2: T1 sequence (A0A1I4IFH0 1-199)
Kind of experiment: ITC.

The target in experiment [5] is T3, VcMbnBC complex (Vibrio caribbenthicus BAA-2122).
T3 chain 1: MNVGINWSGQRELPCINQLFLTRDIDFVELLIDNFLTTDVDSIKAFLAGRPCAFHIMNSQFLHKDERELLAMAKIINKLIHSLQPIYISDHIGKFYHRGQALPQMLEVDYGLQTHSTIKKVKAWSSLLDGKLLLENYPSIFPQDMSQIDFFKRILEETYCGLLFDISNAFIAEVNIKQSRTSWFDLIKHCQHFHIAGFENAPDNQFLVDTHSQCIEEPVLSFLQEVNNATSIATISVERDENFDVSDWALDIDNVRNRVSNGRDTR
T3 chain 2: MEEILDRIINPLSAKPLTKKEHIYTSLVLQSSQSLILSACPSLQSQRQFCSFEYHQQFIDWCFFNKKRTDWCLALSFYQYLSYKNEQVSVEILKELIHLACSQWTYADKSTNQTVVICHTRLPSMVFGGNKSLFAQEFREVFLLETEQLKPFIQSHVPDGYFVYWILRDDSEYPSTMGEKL
Kind of experiment: ITC. A general note: ITC needs no label: the signal is the heat of the interaction.

The target in experiment [6] is T2, RrMbnBC complex. The experiment can be described thus: ITC.

Consider four molecules from article PMC8888699, “Crystal structure and catalytic mechanism of the MbnBC holoenzyme required for methanobactin biosynthesis” (Cell Research, 2022).

Where two headings read alike, the source gives them in different places. Ends that are not written are not given here. Peptide text beside a SMILES is read from it.

Take `CC[C@H](C)[C@H](NC(=O)[C@H](CCC(=O)O)NC(=O)[C@@H](NC(=O)[C@H](CCCCN)NC(=O)[C@H](CCCCN)NC(=O)[C@@H](NC(=O)[C@@H](NC(=O)[C@@H](NC(=O)[C@@H](NC(=O)[C@H](CCCCN)NC(=O)[C@@H](N)CCSC)[C@@H](C)CC)C(C)C)[C@@H](C)CC)C(C)C)C(C)C)C(=O)N[C@@H](CCC(N)=O)C(=O)N[C@H](C(=O)N[C@@H](C)C(=O)NCC(=O)N[C@@H](CCCNC(=N)N)C(=O)N[C@H](C(=O)NCC(=O)N[C@@H](CCSC)C(=O)N[C@@H](CCCNC(=N)N)C(=O)N[C@@H](CS)C(=O)N[C@@H](C)C(=O)N[C@@H](CO)C(=O)N[C@@H](CO)C(=O)N[C@@H](CS)C(=O)NCC(=O)N[C@@H](C)C(=O)N[C@@H](CCCCN)C(=O)N[C@@H](CO)C(=O)O)[C@@H](C)O)C(C)C` [RrMbnA] (H-MKIVIVKKVEIQVAGRTGMRCASSCGAKS-OH): the “modification by co-expressed RrMbnBC, UV-Vis absorption at ~335 nm” value in experiment [1] is listed as “could be modified”. Moreover, the “effect on RrMbnBC stability in limited proteolysis” value in experiment [2] was “enhance RrMbnBC stability”.
For the molecule MKNDKKVVVKVKDKEM [LP], the “interaction with VcMbnBC (binding assays, in words)” value in experiment [3] (ITC binding assays of VcMbnBC with VcMbnA variants) is on record as “weak interaction”. Also, in experiment [3] (ITC, 16 °C, 2 mM peptide, 20 injections of 2.5 μL into 190 μL VcMbnBC 1 mg/mL in 25 mM HEPES pH 8.0, 100 mM NaCl, one-site binding, read-out: Kd, VcMbnA or variant/VcMbnBC), the Kd turned out to be 63.8 ± 10.5 µM.
Regarding MKNDKKVVVKVKDKEMTCGAFNK [VcMbnA peptide], the figures for the Kd in experiment [4] and in experiment [5] were 4.14 µM and 3000 nM, respectively.
MKIVIVKKVEIQVAGRTGMRCASSCGAKS [RrMbnA peptide] registered a Kd in experiment [6] of 2700 nM.
